Structures can show the parent of a compound that is named as a salt.
Tests used:
[1] = Static permeation study with 16HBE cell monolayer on porous membrane; format: in vitro ADME, human; details: human; static, with 16HBE lung cell barrier, 100 µM apical, 72 h, model parameter estimate; read-out: P12, apparent permeability from the apical to the basolateral compartment and vice versa (converted)
Protocol: (§1) The bronchial cell line 16HBE was cultivated in Dulbecco's modified Eagle medium (DMEM/F12 with L-glutamine and HEPES; Gibco 11039-021, Thermo Fisher Scientific, Waltham, MA, USA), supplemented with 10% fetal bovine serum (FBS, […][…], Sigma Aldrich, St. Louis, MO, USA), 100 U/mL penicillin, and 100 μg/mL streptomycin (Gibco 15140-122, Thermo Fisher Scientific). The cells were cultivated in a humidified atmosphere at 37 °C and 5% CO2. The bronchial cell line 16HBE was obtained from Dr. […] (Cardiovascular Research Institute, University of California). […] The cells were cultivated in a 24-well plate (662160, Greiner bio-one, Frickenhausen, Germany) at 37 °C for five days under a physiological pH in the range of 7.0-7.4 with one CCM exchange after two days. […] The basolateral compartment was filled with fresh CCM. After model substance exposure, total apical, and basolateral CCM were collected each in a 1.5 mL tube ([…] Biotech GmbH & Co. […] For each time point, a separate cell culture insert was used. Samples were then stored at 4 °C until further analysis via HPLC. After the static and fluidic permeation studies, the model substances in the apical and basolateral CCM were quantified via HPLC measurements as described in […] et al.. […] The mobile phase consisted of three running agents: water (solvent A; sterile filtered 0.2 μm pore), acetonitrile (Solvent B; J.T. Baker), and 0.1% trifluoroacetic acid (TFA) in water (Solvent C; Fisher Scientific). The flow rate was set to 0.4 mL/min with 5 μL of the sample injected. […] For detection, a diode array detector (DAD) was used at a wavelength of 275 nm. To model the static in vitro permeation experiments (control and cell experiments), a bidirectional single-barrier model was implemented as a two-compartment ODE system. […] Thereby, […],i reflects the compound permeability through all present permeation barriers in the respective experimental setup, such as unstirred water layers, the porous filter membrane, and cell monolayer (apparent permeability). […] During parameter estimation in the static permeation study, permeability parameters ([…],i) were estimated by fitting the model-simulated concentrations to the observed experimental data via first-order conditional estimation method with interaction (FOCE-I) in […]®, using a combined proportional and additive residual error model (Equation (6)).

16HBE cells = experiment: as above; format: in vitro ADME, human; details: for potential metabolism in the pulmonary epithelial cells: static cellular experiments, from mass balance; for active transport in 16HBE cells: static cellular study, equilibrium with similar apical and basolateral concentrations
Protocol: as §1

[2] = Fluidic permeation study (QuasiVivo QV600) with 16HBE cell barrier; format: in vitro ADME; details: human; fluidic cell experiment, 200 µL/min; static P12 multiplied by factor F; read-out: P16, apparent permeability between the apical and basolateral chambers in the fluidic system (converted)
Protocol: Fluidic permeation studies were performed in the MCmB QuasiVivo® […]), which was assembled according to the manufacturer's instructions. An apical and basolateral flow with a flow rate of 200 μL/min was used (Figure 7b). […] The apical circuit consisted of the apical reservoir bottle, the apical part of the pulmonary chamber, the pump, a three-way cock (B.Braun 4095111; dosing/sampling port; in order of medium flow), and connecting tubes. The basolateral circuit comprised the basolateral reservoir bottle, the basolateral part of the pulmonary chamber, a second chamber allowing the integration of additional cell tissues, the pump, the basolateral sampling port (in order of medium flow), and connecting tubes (Figure 8). Different tubing ([…]-2 Tubing set; […] VWR 228-1066, Radnor, PA, USA) was used to establish the optimal connection between the reservoir bottles, cell chambers, pump, and sampling ports. For the in vitro cell permeation studies, 4.3 × 10^4 16HBE cells were seeded in a cell culture insert with a pore size of 0.4 μm and a growth area of 0.6 cm^2 (PIHP 012 50, Merck Millipore) and cultivated at 37 °C for five days. […] After the static and fluidic permeation studies, the model substances in the apical and basolateral CCM were quantified via HPLC measurements as described in Elberskirch et al.. […]

[3] = system: human bronchial epithelial cell line Calu-3; parameters: method as in earlier work; details: Calu-3 cells; ref 5 (Mathias et al.); cited from earlier work
[4] = Static permeation study without lung cells (control, porous membrane only); format: in vitro ADME; details: not told, control without lung cell barrier (porous membrane 0.4 µm, 0.6 cm^2), 100 µM apical, model parameter estimate, read-out: P12, apparent permeability from the apical to the basolateral compartment and vice versa (converted)
Protocol: The cells were cultivated in a 24-well plate (662160, Greiner bio-one, Frickenhausen, Germany) at 37 °C for five days under a physiological pH in the range of 7.0-7.4 with one CCM exchange after two days. […] The basolateral compartment was filled with fresh CCM. After model substance exposure, total apical, and basolateral CCM were collected each in a 1.5 mL tube (Kisker Biotech GmbH & Co. […] For each time point, a separate cell culture insert was used. Samples were then stored at 4 °C until further analysis via HPLC. […] After the static and fluidic permeation studies, the model substances in the apical and basolateral CCM were quantified via HPLC measurements as described in Elberskirch et al.. […] Separation was performed using a Poroshell 120 EC-C18 column (2.1 × 100 mm, 2.7 μm; 695775-902, Agilent Technologies) connected to a guard column (Poroshell 120 EC-C18, 2.1 × 5 mm, 2.7 μm, Agilent Technologies). The mobile phase consisted of three running agents: water (solvent A; sterile filtered 0.2 μm pore), acetonitrile (Solvent B; J.T. Baker), and 0.1% trifluoroacetic acid (TFA) in water (Solvent C; Fisher Scientific). The flow rate was set to 0.4 mL/min with 5 μL of the sample injected. […] For detection, a diode array detector (DAD) was used at a wavelength of 275 nm. […]

[5] = cited from earlier work

Row | SMILES | Papp A→B at 72 h, 100 µM [1] [×10⁻⁶ cm/s] | potential metabolism in the pulmonary epithelial cells (16HBE cells) | active transport in 16HBE cells (16HBE cells) | Papp at 72 h, 100 µM [2] [×10⁻⁶ cm/s] | apparent permeability (published value) [3] [×10⁻⁶ cm/s] | Papp A→B at 72 h, 100 µM [4] [×10⁻⁶ cm/s] | logP [5]
1 | Cn1c(=O)c2c(ncn2C)n(C)c1=O [caffeine] | 43.7 | negligible | neither caffeine nor diclofenac were subject to active transport | 14.9 | 21.8 | 54.5 | 
2 | O=C(O)Cc1ccccc1Nc1c(Cl)cccc1Cl [diclofenac, diclofenac sodium salt] | 23 | negligible | neither caffeine nor diclofenac were subject to active transport | 3.92 |  | 41.8 | ~ 4

From PMC8876625 (Pharmaceuticals, 2022)
